From US20130165508A1, “METHODS AND FORMULATIONS FOR TREATING INEFFECTIVE OR DECREASED ESOPHAGAL MOTILITY” (priority 2007, published 2013)

Key:
[1] = Gastrointestinal absorption of oral bethanechol; assay type: in vivo; conditions: 50 mg oral dosage at about 22 percent absorption
Method: Thus, to achieve the beneficial effects of bethanechol on esophageal motility, systemic dosages in the range of 25-50 mg are required. Further, absorption of bethanechol at these dosage levels by the stomach and lower GI tract results in systemic distribution to other areas of the body such as the urinary tract and colon. A 50 mg oral dosage, for example, is believed to be about 22 percent absorbed in the stomach and intestines, which are rich in blood supply. This would result in a systemic level of about 11 mg of bethanechol. As described herein, however, bethanechol delivered locally to the pharynx and esophagus in a form that can more easily be absorbed by the mucosal lining of the pharynx and esophagus and delivered to the muscarinic receptors, principally the M2 receptors, can provide esophageal motility benefits, as well as increased salivation, while minimizing or avoiding systemic absorption and reducing or eliminating undesirable side effects. Enhancing the reduction or elimination of undesirable side effects is the fact that the esophagus has low vascularization, thus inhibiting the systemic absorption of bethanechol.

[2] = Expected absorption of bethanechol from ten 0.1 ml sprays with absorption enhancer; assay type: in vivo
Excerpt: An exemplary method comprises treating ineffective esophageal motility while reducing or virtually eliminating an undesirable side effect, particularly a parasympathetic nervous system side effect, in a mammal in need of treatment by topically administering to the pharynx and esophagus of the mammal a therapeutically effective amount of bethanechol and an absorption enhancer to facilitate esophageal peristalsis so that the undesirable side effect, particularly the parasympathetic nervous system side effect, is reduced while maintaining the therapeutic esophageal peristaltic effect. A further exemplary method comprises delivering an amount of bethanechol of between about 3 mg and about 15 mg. A further exemplary method comprises introducing about ten 0.1 ml sprays comprising 5 mg bethanechol per ml and an absorption enhancer. Of the total 5 mg introduced, it is expected about 25 percent of the bethanechol, or about 1.25 mg, is adsorbed. The remaining 3.75 mg would proceed into the stomach and intestines, and, at about a 22 percent absorption rate would result in only about 0.8 mg bethanechol being systemically adsorbed, far below the threshold necessary to produce undesirable side effects.

[3] = tested on: patients with severe ineffective esophageal motility; conditions: 50 mg oral doses, after 15 and 40 minutes; cited from earlier work
[4] = cited from earlier work
muscarinic M2 receptors = biological target: T1, muscarinic M2 receptors (Homo sapiens, UniProt P08172); conditions: cited from earlier work
T1 sequence (P08172 1-466): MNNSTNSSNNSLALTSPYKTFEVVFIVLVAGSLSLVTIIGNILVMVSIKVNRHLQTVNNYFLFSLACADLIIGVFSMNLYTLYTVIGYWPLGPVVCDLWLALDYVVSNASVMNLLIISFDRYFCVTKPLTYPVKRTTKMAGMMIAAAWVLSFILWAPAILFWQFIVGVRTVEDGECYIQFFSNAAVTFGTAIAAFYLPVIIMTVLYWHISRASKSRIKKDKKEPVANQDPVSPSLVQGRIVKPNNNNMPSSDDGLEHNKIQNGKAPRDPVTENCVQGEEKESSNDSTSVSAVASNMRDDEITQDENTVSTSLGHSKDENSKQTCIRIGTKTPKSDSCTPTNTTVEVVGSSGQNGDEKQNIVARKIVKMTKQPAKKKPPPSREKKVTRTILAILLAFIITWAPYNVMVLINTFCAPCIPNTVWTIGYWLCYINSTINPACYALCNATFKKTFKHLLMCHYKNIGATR

acetylcholinesterase = acetylcholinesterase (Homo sapiens, UniProt P22303); conditions: cited from earlier work
Sequence of acetylcholinesterase (P22303 32-614, species assumed): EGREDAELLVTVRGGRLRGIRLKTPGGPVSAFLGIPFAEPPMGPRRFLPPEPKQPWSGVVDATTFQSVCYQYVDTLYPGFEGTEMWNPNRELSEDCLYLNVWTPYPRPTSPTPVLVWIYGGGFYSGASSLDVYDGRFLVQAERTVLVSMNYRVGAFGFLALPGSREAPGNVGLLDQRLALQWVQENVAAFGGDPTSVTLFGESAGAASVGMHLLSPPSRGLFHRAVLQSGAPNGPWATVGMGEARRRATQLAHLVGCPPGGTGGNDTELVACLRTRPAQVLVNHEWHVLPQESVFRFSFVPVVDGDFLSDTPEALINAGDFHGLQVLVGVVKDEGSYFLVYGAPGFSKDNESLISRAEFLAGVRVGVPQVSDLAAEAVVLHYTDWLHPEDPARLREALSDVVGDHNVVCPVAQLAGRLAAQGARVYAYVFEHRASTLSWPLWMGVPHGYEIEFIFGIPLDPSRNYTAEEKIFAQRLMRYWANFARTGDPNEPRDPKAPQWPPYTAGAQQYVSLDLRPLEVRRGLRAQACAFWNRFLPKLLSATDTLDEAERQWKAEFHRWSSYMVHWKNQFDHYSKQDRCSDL

[5] = cited from earlier work; remark: listed apart in the source
[6] = systemic dosing; cited from earlier work

With `CC(C[N+](C)(C)C)OC(N)=O` (centres unmarked) [bethanechol, 2-carbamoyloxpropyl-trimethyl-ammonium chloride] the “systemic level of bethanechol” value [1] was “about 11 mg”, the “bethanechol systemically adsorbed from the remaining 3.75 mg” value ([2]; remaining 3.75 mg in stomach and intestines at about 22 percent absorption rate) was “about 0.8 mg” and the “fraction of bethanechol adsorbed from the spray” value ([2]; ten 0.1 ml sprays, 5 mg bethanechol per ml with absorption enhancer, total 5 mg) was “about 25%”. For the same compound, the “amount of bethanechol adsorbed from the spray” value ([2]; ten 0.1 ml sprays, total 5 mg) was “about 1.25 mg”, the “effect on esophageal motility” value [3] was “improve esophageal motility” and the “fraction absorbed in the stomach and intestines” value ([4]; 50 mg oral dosage, "is believed") was “about 22%”. For the same compound, the “absorption by the mucosal lining of the gastrointestinal tract” value ([4]; in vivo) was “poorly absorbed”, the receptor selectivity (muscarinic M2 receptors) was “directly and selectively on the muscarinic M2 receptors” and the inactivation by acetylcholinesterase (acetylcholinesterase) was “not inactivated by acetylcholinesterase”. For the same compound, the “stability and water solubility” value [5] was “stable, water-soluble” and the “undesirable side effects when provided systemically” value [6] was “diarrhea, flushing, increased sweating, nausea, stomach pain, or gas, and, importantly, urinary urgency”.
